For 93 compounds, IC50 results are on record in ChEMBL document CHEMBL3886179, “Substituted 6, 7-dialkoxy-3-isoquinoline derivatives as inhibitors of phosphodiesterase 10 (PDE 10A)” (2015).

A word on the IC50: it is the concentration needed to halve the response being measured.

The structures appear in SMILES notation. “And” between values parts separate entries of the source, which are not always exact repeats. Equal values may be shown once.

The target of this assay is cAMP and cAMP-inhibited cGMP 3',5'-cyclic phosphodiesterase 10A (Homo sapiens, UniProt Q9Y233). Description: Diaxonhit Phosphodiesterase Assay: The phosphodiesterase assay was developed using the LANCE cAMP kit (PerkinElmer). The assay buffer contained HBSS with 5 mM HEPES, 0.1% BSA, and 1.5 mM MgCl2, pH 7.4. PDE10A (BPS Bioscience) was used at 200 pg/well (with a specific activity of 3200 pmole/min/ug with assay conditions: 10 mM Tris-HCl, pH 7.4, 10 mM MgCl2, 1 mM MnCl2, 200 uM cAMP, 2.5 kU 5' nucleotidase, 37° C., 20 min) and PDE4D3 (BPS Bioscience) was used at 100 pg/well (with a specific activity of 32713 pmole/min/ug with assay conditions: 10 mM Tris-HCl, pH 7.4, 10 mM MgCl2, 1 mM MnCl2, 200 uM cAMP, 2.5 kU 5' nucleotidase, 37° C., 20 min). The Biotin-cAMP tracer, supplied in 10 mmol/L Tris-HCl buffered (pH 8.0) salt solution with 1 mmol/L ethylenediaminetetraacetic acid (EDTA), 0.1% bovine serum albumin (BSA), and 0.05% sodium azide, is used at a dilution of 1/375. The assay detection mixture contained the LANCE Eu-W8044 labeled streptavidin 1/2250 (supplied in 50 mmol/L Tris-HCl buffer). Background: Time-resolved FRET reads energy transfer from a long-lived donor to a nearby acceptor.
cAMP and cAMP-inhibited cGMP 3',5'-cyclic phosphodiesterase 10A, sequence (Q9Y233 whole entry): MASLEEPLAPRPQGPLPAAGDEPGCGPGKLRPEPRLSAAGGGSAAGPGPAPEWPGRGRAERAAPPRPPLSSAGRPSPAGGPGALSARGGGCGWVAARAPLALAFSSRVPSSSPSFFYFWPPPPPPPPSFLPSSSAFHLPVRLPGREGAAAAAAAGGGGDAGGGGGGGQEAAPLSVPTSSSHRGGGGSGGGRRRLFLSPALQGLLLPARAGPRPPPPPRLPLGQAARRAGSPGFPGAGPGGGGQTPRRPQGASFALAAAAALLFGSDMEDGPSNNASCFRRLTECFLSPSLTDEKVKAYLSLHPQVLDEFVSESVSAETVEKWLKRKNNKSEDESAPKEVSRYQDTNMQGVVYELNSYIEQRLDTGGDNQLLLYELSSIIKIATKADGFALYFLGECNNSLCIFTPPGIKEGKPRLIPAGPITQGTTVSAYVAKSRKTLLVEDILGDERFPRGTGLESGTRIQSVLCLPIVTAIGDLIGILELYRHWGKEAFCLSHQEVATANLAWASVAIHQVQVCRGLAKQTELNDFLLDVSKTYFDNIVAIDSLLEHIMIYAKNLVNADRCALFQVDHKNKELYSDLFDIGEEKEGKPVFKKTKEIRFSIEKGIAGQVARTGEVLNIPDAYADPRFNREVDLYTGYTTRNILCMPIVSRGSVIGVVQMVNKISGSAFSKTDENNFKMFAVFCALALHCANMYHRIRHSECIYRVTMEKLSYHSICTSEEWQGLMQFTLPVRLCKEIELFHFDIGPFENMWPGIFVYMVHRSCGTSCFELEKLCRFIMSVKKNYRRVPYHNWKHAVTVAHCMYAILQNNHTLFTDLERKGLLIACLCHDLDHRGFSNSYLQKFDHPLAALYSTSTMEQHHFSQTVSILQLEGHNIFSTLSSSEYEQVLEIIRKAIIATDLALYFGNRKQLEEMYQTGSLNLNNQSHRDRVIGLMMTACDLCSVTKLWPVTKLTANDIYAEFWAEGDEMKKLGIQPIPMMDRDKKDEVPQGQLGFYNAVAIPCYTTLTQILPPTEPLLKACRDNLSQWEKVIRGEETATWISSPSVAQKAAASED

As to `COc1cc2c(Cc3cnc4ccccc4c3)cnc(C3CC3)c2cc1OC`, the 50% inhibitory concentration (IC50) came out at 42 nM. The figure for `CCOc1cccc2ccc(Cc3cncc4cc(OC)c(OC)cc34)nc12` is 49 nM; for `COCc1ncc(Cc2ccc3cccc(NS(N)(=O)=O)c3n2)c2cc(OC)c(OC)cc12` it is 0.18 nM.

Take `CCCc1ncc(Cc2ccc3cccc(OCC(N)=O)c3n2)c2cc(OC)c(OC)cc12`: the concentration for half-maximal inhibition (IC50) is 1.4 nM and 5.3 nM. As for `COc1cc2c[n+]([O-])cc(Cc3ccc4oc5ccccc5c4c3)c2cc1OC`, the IC50 is 31 nM. Take `CCOc1cc2c(Cc3ccc4oc5ccccc5c4c3)cncc2cc1OC`: the IC50 is 287 nM.

Consider `COc1cc2c(Cc3ccc4ccccc4c3)cnc(C)c2cc1OC`, for which the IC50 was found to be 194 nM. The figure for `CCCc1ncc(Cc2ccc3cccc(OCCO)c3n2)c2cc(OC)c(OC)cc12` is 6.6 nM; for `CCc1ncc(Cc2ccc3cccc(C#N)c3n2)c2cc(OC)c(OC)cc12` it is 46 nM. Under `COc1cc2cncc(Cc3ccc4cccc(O)c4n3)c2cc1OC` stands 23 nM. The figure for `CCc1ncc(Cc2ccc3oc4ccccc4c3c2)c2cc(OC)c(OC)cc12` is 339 nM; for `COc1cc2cncc(Cc3ccc4[nH]c(=O)oc4c3)c2cc1OC` it is 34 nM; for `CCc1ncc(Cc2cnc3ccccc3c2)c2cc(OC)c(OC)cc12` it is 19 nM. As for `CCCc1ncc(Cc2cc3cc(OC)ccc3nc2NCC)c2cc(OC)c(OC)cc12`, the concentration for half-maximal inhibition (IC50) was determined as 9.7 nM.

On to `CCc1ncc(Cc2cnc3ccc(NS(N)(=O)=O)cc3c2)c2cc(OC)c(OC)cc12`, for which the half-inhibitory concentration (IC50) was 4.6 nM. Under `COc1cc2c(Cc3ccc4oc5ccccc5c4c3)cnc(C)c2cc1OC` stands 184 nM; under `CCCc1ncc(Cc2cc3ccccc3cn2)c2cc(OC)c(OC)cc12`, 159 nM; under `CCOc1cc2c(Cc3cnc4ccccc4c3)cncc2cc1OC`, 92 nM. Turning to `COc1cc2cncc(Cc3cnc4ccccc4c3)c2cc1OC`, the IC50 turned out to be 13 nM. Under `CCOC(=O)COc1cccc2ccc(Cc3cncc4cc(OC)c(OC)cc34)nc12` stands 51 nM.

Regarding `CCCc1ncc(Cc2cnc3ccccc3c2)c2cc(OC)c(OC)cc12`, the concentration for half-maximal inhibition (IC50) came out at 11 nM. The figure for `COc1cc2cncc(Cc3ccc4c(c3)CCC(C)(C)O4)c2cc1OC` is 81 nM; for `CCc1ncc(Cc2cc3ccccc3cn2)c2cc(OC)c(OC)cc12` it is 32 nM.

Consider `COc1cc2c(Cc3ccc4nc(C)ccc4c3)cnc(-c3ccccc3)c2cc1OC`, for which the IC50 is 148 nM. Under `CCc1ncc(Cc2ccc3cccc(NC(N)=O)c3n2)c2cc(OC)c(OC)cc12` stands 58 nM; under `COc1cc2cncc(Cc3ccc4ccccc4c3)c2cc1OC`, 105 nM; under `c1ccc2c(c1)oc1ccc(Cc3cncc4cc5c(cc34)OCCO5)cc12`, 7560 nM.

On to `COc1cc2cncc(Cc3ccc4c(c3)Cc3ccccc3-4)c2cc1OC`, for which the IC50 turned out to be 110 nM. Under `COc1cc2cncc(Cc3coc4c(Cl)cc(Cl)cc4c3=O)c2cc1OC` stands 27 nM; under `CCCc1ncc(Cc2cnc3cc(C)ccc3c2)c2cc(OC)c(OC)cc12`, 5.2 nM. The figure for `CCn1c(=O)oc2ccc(Cc3cncc4cc(OC)c(OC)cc34)cc21` is 7.8 nM; for `COc1cc2cncc(Cc3cnc4cc(C)ccc4c3)c2cc1OC` it is 1.2 nM; for `CCc1ncc(Cc2cnc3ccc(N)cc3c2)c2cc(OC)c(OC)cc12` it is 13 nM. Under `COc1cc2cncc(Cc3coc4ccc(Cl)cc4c3=O)c2cc1OC` stands 20 nM; under `c1ccc2c(c1)oc1ccc(Cc3cncc4cc5c(cc34)OCO5)cc12`, 3170 nM; under `COc1cc2cncc(Cc3ccc4cccc(OCC(N)=O)c4n3)c2cc1OC`, 21 nM. Regarding `CCc1ncc(Cc2cc3cc(OC)ccc3nc2O)c2cc(OC)c(OC)cc12`, the IC50 came out at 44 nM. For `CCCc1ncc(Cc2coc3ccc(C)cc3c2=O)c2cc(OC)c(OC)cc12`, the IC50 worked out at 31 nM.

For `COc1cc2cncc(Cc3coc4ccc(F)cc4c3=O)c2cc1OC`, the IC50 amounted to 38 nM. For `COc1ccc2cc(Cc3cncc4cc(OC)c(OC)cc34)ccc2c1`, the IC50 worked out at 54 nM. Under `CCc1ncc(Cc2ccc3cccc(C(N)=O)c3n2)c2cc(OC)c(OC)cc12` stands 77 nM; under `COc1cc2c(Cc3ccc4nc(C)ccc4c3)cnc(C3CCCCC3)c2cc1OC`, 368 nM; under `CCCc1ncc(Cc2coc3ccc(F)cc3c2=O)c2cc(OC)c(OC)cc12`, 54 nM. The figure for `CCCOc1cccc2ccc(Cc3cncc4cc(OC)c(OC)cc34)nc12` is 315 nM; for `COc1cc2cncc(Cc3cc4ccccc4cn3)c2cc1OC` it is 30 nM. On to `COc1cc2cncc(Cc3ccc4nc(C)ccc4c3)c2cc1OC`, for which the IC50 came to 6.5 nM.

As for `CCCc1ncc(Cc2ccc3cccc(OCC(=O)O)c3n2)c2cc(OC)c(OC)cc12`, the 50% inhibitory concentration (IC50) was 4.9 nM.

For the compound `CCOc1c(Cc2cncc3cc(OC)c(OC)cc23)cnc2c1cnn2CC`, the IC50 worked out at 3560 nM. Under `COc1cc2cncc(Cc3ccc4[nH]cnc4c3)c2cc1OC` stands 74 nM. The figure for `COc1cc2c(Cc3cnc4cc(C)ccc4c3)cnc(C)c2cc1OC` is 7.1 nM; for `CCCc1ncc(Cc2ccc3oc4ccccc4c3c2)c2cc(OC)c(OC)cc12` it is 278 nM; for `COc1cc2cncc(Cc3coc4ccc(C)cc4c3=O)c2cc1OC` it is 5.1 nM.

Take `COc1cc2cncc(Cc3ccc4oc5ccccc5c4c3)c2cc1OC`: the IC50 was 7.6 nM. For `COc1cc2cncc(Cc3cc4ccccc4nc3N(C)C)c2cc1OC`, the IC50 was 142 nM. On to `COc1ccc2nc(O)c(Cc3cncc4cc(OC)c(OC)cc34)cc2c1`, for which the IC50 amounted to 25 nM. Regarding `CCc1ncc(Cc2ccc3nc(C)ccc3c2)c2cc(OC)c(OC)cc12`, the IC50 worked out at 28 nM. Under `CCCc1ncc(Cc2ccc3cccc(NS(N)(=O)=O)c3n2)c2cc(OC)c(OC)cc12` stands 0.82 nM.

Regarding `CCc1ncc(Cc2cnc3ccc(NS(C)(=O)=O)cc3c2)c2cc(OC)c(OC)cc12`, the 50% inhibitory concentration (IC50) is 16 nM. The figure for `COc1cc2cncc(Cc3ccc4ccccc4n3)c2cc1OC` is 208 nM; for `COc1cc2cnc(C)c(Cc3ccc4ccccc4c3)c2cc1OC` it is 1070 nM; for `CCc1ncc(Cc2ccc3cccc(NS(C)(=O)=O)c3n2)c2cc(OC)c(OC)cc12` it is 8.3 nM. Regarding `CCCc1ncc(Cc2ccc3cccc(O)c3n2)c2cc(OC)c(OC)cc12`, the IC50 was 20 nM. Under `CCOc1cc2cncc(Cc3cnc4ccccc4c3)c2cc1OCC` stands 168 nM. Under `CCCCc1ncc(Cc2cnc3cc(C)ccc3c2)c2cc(OC)c(OC)cc12` stands 946 nM. Under `COc1cc2c(Cc3ccc4nc(C)ccc4c3)cnc(CC(C)C)c2cc1OC` stands 31 nM; under `COc1cc2cncc(Cc3ccc4c(c3)oc(=O)n4C)c2cc1OC`, 3.6 nM; under `CCCc1ncc(Cc2cc3ccccc3nc2O)c2cc(OC)c(OC)cc12`, 36 nM. As for `COc1cc2cncc(Cc3cc4ccccc4nc3Cl)c2cc1OC`, the IC50 turned out to be 95 nM. Under `CCCc1ncc(Cc2ccc3cccc(OCCC(=O)O)c3n2)c2cc(OC)c(OC)cc12` stands 2.3 nM; under `CCCc1ncc(Cc2cc3cc(OC)ccc3nc2OCCNC(C)=O)c2cc(OC)c(OC)cc12`, 65 nM; under `CCc1ncc(Cc2cnc3ccc(N4CCCC4=O)cc3c2)c2cc(OC)c(OC)cc12`, 15 nM.

As to `CCc1ncc(Cc2ccc3cccc(NC(C)=O)c3n2)c2cc(OC)c(OC)cc12`, the IC50 was 17 nM. Consider `CCc1ncc(Cc2ccc3cccc(OCC(N)=O)c3n2)c2cc(OC)c(OC)cc12`, for which the half-inhibitory concentration (IC50) was found to be 20 nM. Regarding `CCCCc1ncc(Cc2ccc3nc(C)ccc3c2)c2cc(OC)c(OC)cc12`, the IC50 amounted to 154 nM.

Regarding `CCc1ncc(Cc2cnc3ccc(O)cc3c2)c2cc(OC)c(OC)cc12`, the IC50 came out at 28 nM.

As to `CCCc1ncc(Cc2ccc3c(c2)oc(=O)n3C)c2cc(OC)c(OC)cc12`, the IC50 was 4.4 nM. The figure for `CCn1ncc2c(Cl)c(Cc3cncc4cc(OC)c(OC)cc34)cnc21` is 330 nM; for `CCn1c(=O)oc2cc(Cc3cncc4cc(OC)c(OC)cc34)ccc21` it is 32 nM. The figure for `CCCCc1ncc(Cc2cnc3ccccc3c2)c2cc(OC)c(OC)cc12` is 92 nM; for `COc1cc2cncc(Cc3ccc4cccc(OCc5cccnc5)c4n3)c2cc1OC` it is 90 nM. The figure for `COc1cc2cncc(Cc3ccc4ncccc4c3)c2cc1OC` is 54 nM; for `COc1cc2c(Cc3ccc4nc(C)ccc4c3)cnc(C3CC3)c2cc1OC` it is 25 nM; for `CCCc1ncc(Cc2cc3cc(OCC)ccc3nc2O)c2cc(OC)c(OC)cc12` it is 99 nM. Consider `CCc1ncc(Cc2ccc3cccc(NC(=O)C(N)=O)c3n2)c2cc(OC)c(OC)cc12`, for which the IC50 is 17 nM. The figure for `CCc1ncc(Cc2ccc3cccc(NS(N)(=O)=O)c3n2)c2cc(OC)c(OC)cc12` is 0.53 nM; for `COc1ccc2cc(Cc3cncc4cc(OC)c(OC)cc34)cnc2c1` it is 18 nM.

Take `COc1cc2cncc(Cc3ccc4cccc(OCc5ccncc5)c4n3)c2cc1OC`: the IC50 was 213 nM. The figure for `COc1cc2cncc(Cc3ccc4c(c3)CCN4C)c2cc1OC` is 132 nM. `COc1cc2cncc(Cc3ccc4oc(-c5ccccc5)nc4c3)c2cc1OC`: the IC50 turned out to be 189 nM.

For the compound `CCc1ncc(Cc2ccc3cccc(NS(=O)(=O)CC)c3n2)c2cc(OC)c(OC)cc12`, the 50% inhibitory concentration (IC50) amounted to 3.5 nM. Under `COc1cc2cncc(Cc3ccc4c(c3)OCCN4C)c2cc1OC` stands 70 nM. Consider `CCn1ncc2c(O)c(Cc3cncc4cc(OC)c(OC)cc34)cnc21`, for which the IC50 worked out at 238 nM. The figure for `COc1cc2cncc(Cc3coc4ccccc4c3=O)c2cc1OC` is 41 nM.
